Source: patent publication US4638009A, “Derivatives of 3-pyrrolidinopropiophenone and a process for preparation thereof” (Hokuriku Pharmaceutical Co., Ltd., priority 1984, dated 1987)
Where a name gives a salt, the structure may show the parent alone.

Assays:
[1] = test system: oxotremorine-induced tremor; assay: Effect on oxotremorine-induced tremor; type: in vivo, male ddY mice; settings: 100 mg/kg p.o., oxotremorine 1 mg/kg i.p. 15 min later, 0=absent to 5=lack of righting reflex; for tremor score, 5 min: passage of time 5 min; for tremor score, 10 min: passage of time 10 min; for tremor score, 15 min: passage of time 15 min; for tremor score, 20 min: passage of time 20 min; for tremor score, 30 min: passage of time 30 min
Method: 3. Effect on oxotremorine-induced tumor
Male ddY mice 5 weeks old were used with 5 animals in a group. The compounds were administrated per os at a dose of 100 mg/kg and after 15 minutes oxotremorine was intraperitoneally administered at dose of 1 mg/kg. The strength of the induced tremor was observed by the method of Suzuki et al (Folia Pharmacologica Japonica, 83, 127(1983) and scored up with passage of time as follows:
4=severe, 5=lack of righting reflex.

[2] = test system: nicotine-induced convulsion; assay: Activity on nicotine-induced convulsion; type: in vivo, male ddY mice; settings: compound 25 mg/kg p.o., nicotine tartrate 3 mg/kg i.v. 15 min later, n=5; for mortality: dead animals because of the convulsions
Method: 2. Activity on nicotine-induced convulsion
Male ddY mice 5 weeks old were used with 5 animals in a group. The compounds were administered per os at a dose of 25 mg/kg. After 15 minutes of drug administration, Nicotine tartarate was administered intravenously at an amount of 3 mg/kg and the tonic convulsions and dead animals because of the convulsions have been measured. The effect of the compounds has been indicated by percentage of appearance of tonic convulsion and the mortality.

in vivo = settings: mouse
Method: Male ddY mice 5 weeks old were used with 5 animals at a group. The compounds were administrated orally with each dosage. LD50 was determined by the Probit method from dead animals dying within 7 days.

[3] = cited from earlier work; for side effect (prior art): in vivo
[4] = versus Tolperisone; cited from earlier work

SMILES	tremor score, 5 min [1]	tremor score, 10 min [1]	tremor score, 15 min [1]	tremor score, 20 min [1]	tremor score, 30 min [1]	appearance of tonic convulsion [2] [%]	mortality [2] [%]	LD50 at 168 h (in vivo; oral, deaths within 7 days, Probit method, n=5 per group) [mg/kg]	toxicity (prior art) ([3]; Eperisone versus Tolperisone)	side effect (prior art) [3]	muscle relaxation activity of Eperisone (prior art) [4]	LD50 at 168 h (in vivo; po) [mg/kg]
CCCCc1ccc(C(=O)C(C)CN2CCCC2)cc1 (stereo not drawn) [Compound 1, 4'-n-Butyl-2-methyl-3-pyrrolidinopropiophenone]	0	0.4	0.4	0.9	0.8	20	40	520				
CCc1ccc(C(=O)C(C)CN2CCCC2)cc1 (stereo not drawn) [Compound 2, 4'-Ethyl-2-methyl-3-pyrrolidinopropiophenone]	0	0.4	0.3	0.4	0.4	40	60					
CCc1ccc(C(=O)C(C)CN2CCCCC2)cc1 (stereo not drawn) [Eperisone]									just the same strong toxicity as Tolperisone	hepatic and kidney function disorder	improvement in muscle relaxation activity	
CCc1ccc(C(=O)C(C)CN2CCCCC2)cc1 (stereo not drawn) [Reference Drug, Eperisone hydrochloride, reference compound]	0	0.4	0.3	0.2	0	60	100					332
Cc1ccc(C(=O)C(C)CN2CCCCC2)cc1 (stereo not drawn) [Tolperisone]										hepatic functional disorder		
